# Measurements: patent US20190029987A1, “DIMETHYL FUMARATE (DMF) FOR PREVENTION OR TREATMENT OF GOUT, ACNE, DIABETES, VITILIGO AND/OR PYODERMA GANGRENOSUM” (UNIVERSITAT ZURICH, priority 2016, published 2019)
# Experiments:
# [1] = tested on: Nrf2 target genes (GCLC, GCLM, NAD(P)H dehydrogenase, quinone 1); test: Nrf2 target gene expression in HPKs (qRT-PCR); type: cell-based, human; conditions: 10 μM, RNA after 8 h, FIG. 6G
# Description: (§1) Human primary keratinocytes (HPKs) constitutively express pro-IL-1β and inflammasome proteins.
# qRT-PCR was performed with the LightCycler 480 SYBR Green Master or the FastStart Universal SYBR Green Master (both Roche, Rotkreuz, Switzerland) using total cellular RNA. Specific primer pairs (Supplementary Table 2) were designed to generate an approximately 150 bp fragment flanking an intron-exon border of the corresponding gene. The LightCycler 480 96-well version (ROCHE, Rotkreuz, Switzerland) or the ViiA 7 Real-Time FOR System (Life Technologies, Carlsbad, US-CA) was used for reaction and detection according the instructions of the manufacturer.
# (§2) FIG. 6: Bone marrow (BM) cells were isolated from Nrf2-deficient mice and wt litterfnates and differentiated into dendritic cells (DCs). (A, B) After priming with upLPS overnight, BMDCs were treated with the NLRP3 inflammasome activators nigericin (20 μM), zymosan (20 μg/ml), MSU (150 μg/ml), ATP (5 mM) or transfected with poly(dA:dT) (1 μg/ml) for activation of the AIM2 inflammasome. After 6 h, supernatants were analysed for secretion of IL-1β by (A) ELISA or (B) Western blot. Mock-treated but primed BMDCs were analysed for expression of inflammasome proteins and pro-IL-1β at the (C) mRNA level by qRT-PCR or at the (D) protein level by Western blot. (B, D) Duplicates from two individual mice per genotype are shown (biological replicates). (E-G) HPKs were treated with the Nrf2 activators SFN (10 μM), tBHQ (10 μM), DMF (50 μM) and 15d-PGJ2 (10 μM). After 1 h, the cells were harvested and analysed for expression of the indicated proteins using total cell lysates (E) or cytoplasmic and nuclear lysates (F). Western blots for the nuclear protein lamin NC and the cytoplasmic protein α-tubulin served as controls. Specific bands are marked with an asterisk. (G) Total RNA was isolated after 8 h and qRT-PCR was performed for quantification of expression of the Nrf2 target genes glutamate-cysteine ligase, catalytic subunit (GCLC), glutamate-cysteine ligase, modifier subunit (GCLM), and NAD(P)H dehydrogenase, quinone 1 (N001). (A-G) Representative experiments performed at least three times are shown. […] Mann-Whitney test was performed. […] Mann-Whitney test was performed. *P≤0.05
# [2] = tested on: Monosodium urate (MSU) crystal-induced peritonitis; conditions: mice, high concentrations injected into the peritoneum; cited from earlier work
# NLRP3 inflammasome [3] = target: T1, NLRP3 inflammasome (Homo sapiens, UniProt Q96P20); test: Nigericin-induced IL-1β secretion in human PBMCs (ELISA); type: cell-based; conditions: 10 μM 1 h before nigericin (5 μM), 5 h, FIG. 2C
# T1 construct: endogenous in cells
# T1 sequence (Q96P20 whole entry): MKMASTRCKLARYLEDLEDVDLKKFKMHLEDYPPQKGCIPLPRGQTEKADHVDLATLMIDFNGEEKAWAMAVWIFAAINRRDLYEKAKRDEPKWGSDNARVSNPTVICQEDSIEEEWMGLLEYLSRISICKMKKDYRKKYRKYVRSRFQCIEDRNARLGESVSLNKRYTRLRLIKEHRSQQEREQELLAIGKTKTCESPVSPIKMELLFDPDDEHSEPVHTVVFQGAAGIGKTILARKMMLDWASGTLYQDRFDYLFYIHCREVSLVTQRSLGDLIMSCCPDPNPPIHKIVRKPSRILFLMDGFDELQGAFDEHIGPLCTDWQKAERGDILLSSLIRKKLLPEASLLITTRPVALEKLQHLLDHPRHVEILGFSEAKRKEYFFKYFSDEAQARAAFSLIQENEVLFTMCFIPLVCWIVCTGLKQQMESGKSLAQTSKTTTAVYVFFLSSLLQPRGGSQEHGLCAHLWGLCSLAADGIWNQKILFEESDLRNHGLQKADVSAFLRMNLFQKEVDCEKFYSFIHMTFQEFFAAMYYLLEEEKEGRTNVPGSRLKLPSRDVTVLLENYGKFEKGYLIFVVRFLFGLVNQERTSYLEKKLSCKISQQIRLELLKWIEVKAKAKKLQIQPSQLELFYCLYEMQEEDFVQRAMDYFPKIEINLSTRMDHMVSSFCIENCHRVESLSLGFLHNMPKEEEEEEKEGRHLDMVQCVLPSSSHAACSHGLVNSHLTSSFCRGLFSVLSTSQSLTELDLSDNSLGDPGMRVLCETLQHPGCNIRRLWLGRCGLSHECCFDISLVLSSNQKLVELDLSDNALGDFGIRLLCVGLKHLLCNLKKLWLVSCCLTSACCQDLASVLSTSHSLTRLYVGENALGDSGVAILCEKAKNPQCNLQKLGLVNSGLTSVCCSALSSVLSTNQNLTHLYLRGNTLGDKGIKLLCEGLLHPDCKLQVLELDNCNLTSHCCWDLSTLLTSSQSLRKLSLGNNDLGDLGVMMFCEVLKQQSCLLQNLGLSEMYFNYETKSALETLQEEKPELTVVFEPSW
# Description: (§3) To determine the effects of Nrf2 activating compounds on inflammasome activation, the inventors treated keratinocytes with different doses of SFN, tBHQ, DMF or 15d-PGJ2 and irradiated the cells with UVB.
# (§4) SFN, DMF, 15d-PGJ2, tBHQ, zymosan, ATP, poly(dA:dT), cycloheximide, puromycin, and doxycycline were purchased from Sigma (Munich, Germany), nigericin from Enzo Life Sciences (New York, US-NY), MG132 from Calbiochem (Darmstadt, Germany), and blasticidin from Invivogen (Toulouse, France). Release of IL-1p was determined by ELISA according the instructions of the manufacturer (R&D Systems, Minneapolis, US-MN). MSU crystals were prepared by crystallisation of a supersaturated solution of uric acid under mildly basic conditions. Briefly, uric acid was added to a solution of NaOH, the solution was boiled until the uric acid was dissolved and passed through a filter. NaCl was added and crystallisation was performed at 4° C. Crystals were filtered, then dried using a speedvac, weighted and autoclaved.
# (§5) (A) HPKs were treated with the indicated concentrations of the Nrf2 activating compound tBHQ irradiated with UVB 30 min later and harvested after 5 h. ELISA measurements were performed for quantification of IL-1β secretion and Western blots for analysis of expression and activation of the indicated proteins. Specific bands are marked with an asterisk. (B) THP-1 cells were differentiated with PMA (27 nM) for 3 d, primed with upLPS (100 ng/ml) overnight, and 1 h before inflammasome activation (5 μM nigericin, 150 μg/ml MSU) treated with SFN (10 μM), 15-PGJ2 (10 μM) or DMF (50 μM) (15-PG: 15-PGJ2). Cells and supernatants were harvested after 5 h and analysed for inflammasome activation by ELISA measurement of IL-1p and Western blots as indicated. (C) Freshly isolated PBMCs from human blood were primed overnight with upLPS (100 ng/ml) and treated with SFN (10 μM), tBHQ (10 μM), DMF (50 μM) or 15-PGJ2 (10 μM) 1 h before inflammasome activation by nigericin (5 μM). ELISA measurement for secretion of IL-1β as readout for inflammasome activation was performed after 5 h. (D) HPKs or (E) differentiated and primed THP-1 cells were pretreated with cycloheximide (CHX, 30 μg/ml) to block protein synthesis for 1 h before SFN (10 μM) was added to the cells and after an additional hour the inflammasome was activated by (D) irradiation with UVB or (E) treatment with nigericin (5 μM). Cells and supernatants were harvested after (D) 6 h or (E) 3.5 h and analysed for inflammasome activation by Western blot as indicated. (A-E) Representative experiments performed at least three times are shown. Statistics: (A-C) Error bars represent the mean±SD of a representative experiment performed in triplicates. One-way ANOVA was performed. **P≤0.01; ***P≤0.001.
# NLRP3 inflammasome [4] = target: T1, NLRP3 inflammasome; test: Inflammasome activation by nigericin/MSU in differentiated, primed THP-1 cells (IL-1β ELISA, Western blot); type: cell-based; conditions: for accumulation of mature IL-1β in the cells (lysate): THP-1, 10 μM 30 min before nigericin, 2.5 h, FIG. 8D; for IL-1β secretion: THP-1, 10 μM 1 h before 5 μM nigericin or 150 μg/ml MSU, 5 h, FIG. 2B
# Description: as §3, §4, §5
# (A-C) HPKs were irradiated with (A) UVB or treated with (B) nigericin (5 μM) and cells and supernatants were harvested at different time points as indicated. Western blots for expression and activation of the indicated proteins. Specific bands are marked with an asterisk. (C) Expression of Nrf2 and Nrf2 target genes was determined by qRT-PCR. (D, E) THP-1 cells were differentiated with PMA (27 nM) for 3 d, primed with upLPS (100 ng/ml) overnight and treated with nigericin (5 μM) or MSU (150 μg/ml). Cells and supernatants were harvested at different time points as indicated and analysed for (D) expression and activation of the proteins as indicated by Western blot and (E) expression of Nrf2 and Nrf2 target genes by qRT-PCR. (F) HPKs were transfected with specific siRNAs as indicated (scr: scrambled, c1: caspase-1, K1; Keap1), 2 d later irradiated with UVB or treated with nigericin (5 μM). Cells were harvested after 1 h or 5 h, and lysates were analysed for the expression of the indicated proteins by Western blot.
# Nrf2 = Nrf2 stabilisation and nuclear accumulation in human primary keratinocytes (Western blot); type: cell-based; conditions: HPKs, 10 μM, FIG. 6E,F; for expression of the other Nrf2 complex proteins Keap1, Cul3, and Rbx1: 1 h; for stabilisation and nuclear accumulation of Nrf2 protein: harvested after 1 h
# Description: as §1, §2
SMILES,expression of classical Nrf2 target genes [1],inflammasome activation and MSU-induced peritonitis [2],IL-1β secretion (NLRP3 inflammasome [3]),accumulation of mature IL-1β in the cells (lysate) (NLRP3 inflammasome [4]),IL-1β secretion (NLRP3 inflammasome [4]),"inflammasome inhibition by SFN with protein synthesis blocked by cycloheximide (NLRP3 inflammasome [4]; THP-1, CHX 30 μg/ml 1 h before SFN 10 μM, nigericin 5 μM 1 h later, 3.5 h, FIG. 2E)","dependence of inflammasome inhibition on Keap1 (NLRP3 inflammasome [4]; THP-1 cells with knockout of Keap1, 10 μM pretreatment, nigericin 5 μM, 3.5 h, FIG. 4H)","expression of the other Nrf2 complex proteins Keap1, Cul3, and Rbx1 (Nrf2)",stabilisation and nuclear accumulation of Nrf2 protein (Nrf2)
"C[S+]([O-])CCCCN=C=S (stereo not shown) [SFN, sulforaphane]",induction of classical Nrf2 target genes,blocked inflammasome activation and reduced MSU-induced peritonitis,inhibited IL-1β secretion,mature IL-1β did not accumulate,inhibited IL-1β secretion,did not prevent inflammasome inhibition,Keap1 independent,not affected,fast and robust stabilisation and nuclear accumulation of Nrf2 protein
"CCCCCC=CC=C1C(=O)C=CC1CC=CCCCC(=O)O [15d-PGJ2, 15-deoxy-D-prostaglandin J2]",induction of classical Nrf2 target genes,blocked inflammasome activation and reduced MSU-induced peritonitis,inhibited IL-1β secretion,mature IL-1β did not accumulate,inhibited IL-1β secretion,–,–,not affected,fast and robust stabilisation and nuclear accumulation of Nrf2 protein
